This passage reports IC50 and ED50 results from patent publication US4927851A, “Analogs of mevalonolactone and derivatives thereof” (Sandoz Pharm. Corp., priority 1988, dated 1990).

As usually defined, the ED50 is the midpoint of the dose-response relation.

In test [1] the target is T1, HMG-CoA reductase (Rattus norvegicus, UniProt P51639).
T1 construct: from tissue; host or cells: microsomes (printed); rat liver, Sprague-Dawley, by own knowledge of the cited method
T1 sequence (P51639 1-887): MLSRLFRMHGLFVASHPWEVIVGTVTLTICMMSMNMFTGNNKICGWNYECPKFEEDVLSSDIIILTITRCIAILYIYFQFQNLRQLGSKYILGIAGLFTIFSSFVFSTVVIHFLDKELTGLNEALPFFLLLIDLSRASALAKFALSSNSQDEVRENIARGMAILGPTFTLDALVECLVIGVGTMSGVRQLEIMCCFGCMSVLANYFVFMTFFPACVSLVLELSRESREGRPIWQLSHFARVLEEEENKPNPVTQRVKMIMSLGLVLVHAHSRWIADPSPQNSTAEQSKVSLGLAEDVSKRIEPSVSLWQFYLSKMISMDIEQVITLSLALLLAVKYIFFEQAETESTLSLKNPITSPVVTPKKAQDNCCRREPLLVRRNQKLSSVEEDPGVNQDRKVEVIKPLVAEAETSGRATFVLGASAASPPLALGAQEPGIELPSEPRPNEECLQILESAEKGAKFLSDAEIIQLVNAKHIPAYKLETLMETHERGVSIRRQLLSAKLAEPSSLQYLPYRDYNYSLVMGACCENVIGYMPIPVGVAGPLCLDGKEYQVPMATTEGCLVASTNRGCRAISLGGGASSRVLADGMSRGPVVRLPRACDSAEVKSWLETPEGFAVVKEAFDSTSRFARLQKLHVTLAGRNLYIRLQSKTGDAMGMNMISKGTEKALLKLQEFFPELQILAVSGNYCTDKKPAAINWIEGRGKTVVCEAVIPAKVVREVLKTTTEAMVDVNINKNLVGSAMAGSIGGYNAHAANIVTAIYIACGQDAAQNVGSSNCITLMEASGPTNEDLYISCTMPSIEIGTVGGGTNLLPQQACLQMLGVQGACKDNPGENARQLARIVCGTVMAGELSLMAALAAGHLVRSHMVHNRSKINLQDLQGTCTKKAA
Kind of test: Test A. In Vitro Microsomal Assay of HMG-CoA Reductase Inhibition. The format is biochemical. As to conditions: test substance 0.0005-2,000 μmolar, read-out: IC50, concentration producing a 50% inhibition of HMG-CoA reductase activity. How it is done:
Test A. In Vitro Microsomal Assay of HMG-CoA Reductase Inhibition:
This test is carried out precisely as described in column 53 of U.S. Pat. No. 4,613,610 and on page 30 of World (PCT) Published Patent Application No. 84/02131, both of which are hereby incorporated by reference as if set forth herein in their entirety. The concentration of the test substance (compound of Formula I) in the assay system is 0.0005-2,000 μmolar. The obtained IC50 is the concentration of the test substance in the assay system observed or calculated to produce a 50% inhibition of HMG-CoA reductase activity.

In test [2] the test system is 3β-hydroxysterol synthesis. The test can be described thus: Test B. In Vivo Cholesterol Biosynthesis Inhibition Test. Particulars: Rattus norvegicus, po; rats, orally administered, 0.01-200 mg/kg body weight; read-out: ED50, dose producing a 50% inhibition of 3β-hydroxysterol synthesis.
Description: Test B. In Vivo Cholesterol Biosynthesis Inhibition Test:
In this test the rats are orally administered the test substance (compound of Formula I) at dose of 0.01-200 mg/kg. body weight. The obtained ED50 is the dose of the test substance observed or calculated to produce a 50% inhibition of 3β-hydroxysterol synthesis.

The structures appear in SMILES notation. Where a name gives a salt, the structure may show the parent alone.

`CC(C)c1sc(-c2ccccc2)c(-c2ccccc2)c1/C=C/C(O)CC(O)CC(=O)O` (centres unmarked) [Example 5c, sodium(E)-7-(4-phenyl-2-isopropyl-5-phenylthien-3-yl)-3,5-dihydroxy-hept-6-enoate]: the IC50 in test [1] stood at 28 nM. Moreover, the ED50 in test [2] was found to be 0.169 mg/kg. The matching figures for `CC(C)c1sc(C(C)C)c(-c2ccc(F)cc2)c1/C=C/C(O)CC(O)CC(=O)O` (centres unmarked) [Example 8 (sodium salt)]: 27 nM and 0.076 mg/kg.

In the case of `CC[C@H](C)C(=O)O[C@H]1CCC=C2C=C[C@H](C)[C@H](CC[C@@H]3C[C@@H](O)CC(=O)O3)[C@H]21` [Compactin, reference compound], the ED50 in test [2] was 3.5 mg/kg. Regarding `CC(C)c1oc(-c2ccccc2)c(-c2ccc(F)cc2)c1/C=C/C(O)CC(O)CC(=O)O` (centres unmarked) [Example 5b], in test [1], the IC50 came out at 190 nM. Also, the ED50 in test [2] was found to be 0.35 mg/kg. As to `CC[C@H](C)C(=O)O[C@H]1C[C@@H](C)C=C2C=C[C@H](C)[C@H](CC[C@@H]3C[C@@H](O)CC(=O)O3)[C@H]21` [Mevinolin, reference compound], the ED50 in test [2] amounted to 0.41 mg/kg.
